Measured values: ChEMBL document CHEMBL5236573, “Development of benzodioxine-heteroarylpiperazines as highly potent and selective α2c antagonists” (Bioorg Med Chem Lett, 2022)
Converted amounts (≈) assume the structure as drawn.

test system: not listed separately; experiment: Unbound brain-to-plasma concentration ratio in rat at 1 mg/kg, po; format: ADME, organism-based; settings: brain and plasma, read-out: K(p,uu,brain)

| Kp uu | Structure (SMILES) |
| --- | --- |
| 0.45 | O=C1CCCN1c1nsnc1N1CCN(C[C@H]2COc3ccccc3O2)CC1 |

test system: not listed separately; experiment: Cmax in rat plasma at 1 mg/kg, po; format: ADME, organism-based; set-up: dose 1 mg/kg, route po; settings: not given

| Cmax | Structure (SMILES) |
| --- | --- |
| 113 ng/mL | O=C1CCCN1c1nsnc1N1CCN(C[C@H]2COc3ccccc3O2)CC1 |

test system: not listed separately; experiment: Permeability across apical to basolateral side in human Caco-2 cells; format: ADME, cell-based; settings: read-out: permeability

| Papp A→B | Structure (SMILES) |
| --- | --- |
| 73.6 ×10⁻⁶ cm/s | O=C1CCCN1c1nsnc1N1CCN(C[C@H]2COc3ccccc3O2)CC1 |
| 2.9 ×10⁻⁶ cm/s | Cc1c(N2CCNC2=O)c(N2CCN(C[C@H]3COc4ccccc4O3)CC2)nn1C |
| 42.4 ×10⁻⁶ cm/s | O=C1CCCN1c1ncsc1N1CCN(C[C@H]2COc3ccccc3O2)CC1 |

test system: not listed separately; experiment: Tmax in rat plasma at 1 mg/kg, po; format: ADME, organism-based; settings: not given

| Tmax | Structure (SMILES) |
| --- | --- |
| 15 min | O=C1CCCN1c1nsnc1N1CCN(C[C@H]2COc3ccccc3O2)CC1 |

test system: not listed separately; experiment: Metabolic stability in rat hepatocytes assessed as clearance per 10^6 cells at 1 uM; format: ADME, cell-based, Hepatocyte; settings: read-out: CLH

| hepatocyte CLint at 1 µM | Structure (SMILES) |
| --- | --- |
| 16.2 µL/min/1e6 cells | O=C1CCCN1c1nsnc1N1CCN(C[C@H]2COc3ccccc3O2)CC1 |
| 128 µL/min/1e6 cells | CC1(C)CCN(c2nsnc2N2CCN(C[C@H]3COc4ccccc4O3)CC2)C1=O |
| 30 µL/min/1e6 cells | CN(C)C(=O)c1nsnc1N1CCN(C[C@H]2COc3ccccc3O2)CC1 |
| 54.4 µL/min/1e6 cells | COc1scnc1N1CCN(C[C@H]2COc3ccccc3O2)CC1 |
| 1.8 µL/min/1e6 cells | Cc1c(N2CCNC2=O)c(N2CCN(C[C@H]3COc4ccccc4O3)CC2)nn1C |
| 5 µL/min/1e6 cells | O=C1CCCN1c1ncsc1N1CCN(C[C@H]2COc3ccccc3O2)CC1 |

test system: not listed separately; experiment: Cmax in rat brain at 1 mg/kg, po; format: ADME, organism-based; set-up: dose 1 mg/kg, route po; settings: not given

| Cmax | Structure (SMILES) |
| --- | --- |
| 101 ng/g | O=C1CCCN1c1nsnc1N1CCN(C[C@H]2COc3ccccc3O2)CC1 |

test system: not listed separately; experiment: Metabolic stability in human hepatocytes assessed as clearance per 10^6 cells at 1 uM; format: ADME, cell-based, Hepatocyte; settings: read-out: CLH

| hepatocyte CLint at 1 µM | Structure (SMILES) |
| --- | --- |
| 8.2 µL/min/1e6 cells | O=C1CCCN1c1nsnc1N1CCN(C[C@H]2COc3ccccc3O2)CC1 |
| 18.1 µL/min/1e6 cells | CC1(C)CCN(c2nsnc2N2CCN(C[C@H]3COc4ccccc4O3)CC2)C1=O |
| 1.75 µL/min/1e6 cells | CN(C)C(=O)c1nsnc1N1CCN(C[C@H]2COc3ccccc3O2)CC1 |
| 14.3 µL/min/1e6 cells | COc1scnc1N1CCN(C[C@H]2COc3ccccc3O2)CC1 |
| 1.8 µL/min/1e6 cells | Cc1c(N2CCNC2=O)c(N2CCN(C[C@H]3COc4ccccc4O3)CC2)nn1C |
| 3.6 µL/min/1e6 cells | O=C1CCCN1c1ncsc1N1CCN(C[C@H]2COc3ccccc3O2)CC1 |

test system: not listed separately; experiment: Tmax in rat brain at 1 mg/kg, po; format: ADME, organism-based; settings: not given

| Tmax | Structure (SMILES) |
| --- | --- |
| 15 min | O=C1CCCN1c1nsnc1N1CCN(C[C@H]2COc3ccccc3O2)CC1 |

target: T1, Alpha-2A adrenergic receptor (Homo sapiens) (UniProt P08913); experiment: Antagonist activity at alpha2a-adrenoceptor (unknown origin) assessed as reduction in adrenaline-induced response by measuring equilibrium binding constant; settings: filed as antagonist
T1 sequence (whole entry): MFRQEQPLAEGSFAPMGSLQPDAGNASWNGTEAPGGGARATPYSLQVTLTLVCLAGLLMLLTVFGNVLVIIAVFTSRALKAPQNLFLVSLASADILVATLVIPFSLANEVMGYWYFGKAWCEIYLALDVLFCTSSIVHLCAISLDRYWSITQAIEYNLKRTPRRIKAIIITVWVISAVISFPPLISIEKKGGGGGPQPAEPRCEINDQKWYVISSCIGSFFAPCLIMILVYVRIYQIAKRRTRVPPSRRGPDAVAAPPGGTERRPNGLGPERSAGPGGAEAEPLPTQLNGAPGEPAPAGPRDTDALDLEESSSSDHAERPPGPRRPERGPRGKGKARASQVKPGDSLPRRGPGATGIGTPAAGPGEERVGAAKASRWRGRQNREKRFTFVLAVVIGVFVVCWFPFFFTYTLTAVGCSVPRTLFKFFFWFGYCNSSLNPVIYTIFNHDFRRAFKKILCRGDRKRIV

| Kb | Structure (SMILES) |
| --- | --- |
| 282 nM | O=C1CCCN1c1nsnc1N1CCN(C[C@H]2COc3ccccc3O2)CC1 |
| 449 nM | CC1(C)CCN(c2nsnc2N2CCN(C[C@H]3COc4ccccc4O3)CC2)C1=O |
| 449 nM | CN(C)C(=O)c1nsnc1N1CCN(C[C@H]2COc3ccccc3O2)CC1 |
| 88.3 nM | COc1scnc1N1CCN(C[C@H]2COc3ccccc3O2)CC1 |
| 449 nM | Cc1c(N2CCNC2=O)c(N2CCN(C[C@H]3COc4ccccc4O3)CC2)nn1C |
| 317 nM | O=C1CCCN1c1ncsc1N1CCN(C[C@H]2COc3ccccc3O2)CC1 |

test system: not listed separately; experiment: Unbound Cmax in rat plasma at 1 mg/kg, po by rapid equilibrium dialysis method; format: ADME, organism-based; settings: in vivo

| fCmax | Structure (SMILES) |
| --- | --- |
| 52 nM | O=C1CCCN1c1nsnc1N1CCN(C[C@H]2COc3ccccc3O2)CC1 |

test system: not listed separately; experiment: Permeability across basolateral to apical side in human Caco-2 cells; format: ADME, cell-based; settings: read-out: permeability

| Papp B→A | Structure (SMILES) |
| --- | --- |
| 44.3 ×10⁻⁶ cm/s | O=C1CCCN1c1nsnc1N1CCN(C[C@H]2COc3ccccc3O2)CC1 |
| 21.4 ×10⁻⁶ cm/s | Cc1c(N2CCNC2=O)c(N2CCN(C[C@H]3COc4ccccc4O3)CC2)nn1C |
| 24.3 ×10⁻⁶ cm/s | O=C1CCCN1c1ncsc1N1CCN(C[C@H]2COc3ccccc3O2)CC1 |

test system: not listed separately; experiment: Unbound fraction in rat brain at 1 mg/kg, po; format: ADME, organism-based; settings: not given

| fraction unbound | Structure (SMILES) |
| --- | --- |
| 0.104 | O=C1CCCN1c1nsnc1N1CCN(C[C@H]2COc3ccccc3O2)CC1 |

test system: not listed separately; experiment: Solubility of the compound in pH 7.4 buffer; format: physicochemical; settings: not given

| solubility | Structure (SMILES) |
| --- | --- |
| 822 µM (≈ 330 µg/mL) | O=C1CCCN1c1nsnc1N1CCN(C[C@H]2COc3ccccc3O2)CC1 |
| 133 µM (≈ 57.1 µg/mL) | CC1(C)CCN(c2nsnc2N2CCN(C[C@H]3COc4ccccc4O3)CC2)C1=O |
| 719 µM (≈ 280 µg/mL) | CN(C)C(=O)c1nsnc1N1CCN(C[C@H]2COc3ccccc3O2)CC1 |
| 445 µM (≈ 155 µg/mL) | COc1scnc1N1CCN(C[C@H]2COc3ccccc3O2)CC1 |
| 114 µM (≈ 47 µg/mL) | Cc1c(N2CCNC2=O)c(N2CCN(C[C@H]3COc4ccccc4O3)CC2)nn1C |
| 1130 µM (≈ 451 µg/mL) | O=C1CCCN1c1ncsc1N1CCN(C[C@H]2COc3ccccc3O2)CC1 |

species on record: Homo sapiens; experiment: Selectivity index, ratio of Kb for antagonist activity at alpha2a-adrenoceptor (unknown origin) to Kb for antagonist activity at alpha2c-adrenoceptor (unknown origin); settings: not given

| Ratio | Structure (SMILES) |
| --- | --- |
| 5380 | O=C1CCCN1c1nsnc1N1CCN(C[C@H]2COc3ccccc3O2)CC1 |
| 44900 | CC1(C)CCN(c2nsnc2N2CCN(C[C@H]3COc4ccccc4O3)CC2)C1=O |
| 4990 | CN(C)C(=O)c1nsnc1N1CCN(C[C@H]2COc3ccccc3O2)CC1 |
| 8830 | COc1scnc1N1CCN(C[C@H]2COc3ccccc3O2)CC1 |
| 7480 | Cc1c(N2CCNC2=O)c(N2CCN(C[C@H]3COc4ccccc4O3)CC2)nn1C |
| 7940 | O=C1CCCN1c1ncsc1N1CCN(C[C@H]2COc3ccccc3O2)CC1 |

test system: not listed separately; experiment: AUC (0 to 6 hrs) in rat brain at 1 mg/kg, po; format: ADME, organism-based; set-up: dose 1 mg/kg, route po; settings: not given

| AUC(0-t) | Structure (SMILES) |
| --- | --- |
| 140 ng·h/mL | O=C1CCCN1c1nsnc1N1CCN(C[C@H]2COc3ccccc3O2)CC1 |

test system: not listed separately; experiment: Lipophilicity, logD of the compound; format: physicochemical; settings: octanol/water

| logD | Structure (SMILES) |
| --- | --- |
| 2.2 | O=C1CCCN1c1nsnc1N1CCN(C[C@H]2COc3ccccc3O2)CC1 |
| 3.1 | CC1(C)CCN(c2nsnc2N2CCN(C[C@H]3COc4ccccc4O3)CC2)C1=O |
| 2.5 | CN(C)C(=O)c1nsnc1N1CCN(C[C@H]2COc3ccccc3O2)CC1 |
| 2.3 | COc1scnc1N1CCN(C[C@H]2COc3ccccc3O2)CC1 |
| 1.9 | O=C1CCCN1c1ncsc1N1CCN(C[C@H]2COc3ccccc3O2)CC1 |

test system: not listed separately; experiment: Efflux ratio of permeability across basolateral to apical side over apical to basolateral side in human Caco-2 cells; format: ADME, cell-based; settings: not given

| efflux ratio | Structure (SMILES) |
| --- | --- |
| 0.6 | O=C1CCCN1c1nsnc1N1CCN(C[C@H]2COc3ccccc3O2)CC1 |
| 7.5 | Cc1c(N2CCNC2=O)c(N2CCN(C[C@H]3COc4ccccc4O3)CC2)nn1C |
| 0.6 | O=C1CCCN1c1ncsc1N1CCN(C[C@H]2COc3ccccc3O2)CC1 |

test system: not listed separately; experiment: Unbound Cmax in rat brain at 1 mg/kg, po by rapid equilibrium dialysis method; format: ADME, organism-based; settings: in vivo

| fCmax | Structure (SMILES) |
| --- | --- |
| 26 nM | O=C1CCCN1c1nsnc1N1CCN(C[C@H]2COc3ccccc3O2)CC1 |

target: T2, Alpha-2C adrenergic receptor (Homo sapiens) (UniProt P18825); experiment: Antagonist activity at alpha2c-adrenoceptor (unknown origin) assessed as reduction in adrenaline-induced response by measuring equilibrium binding constant; settings: filed as antagonist
T2 sequence (whole entry): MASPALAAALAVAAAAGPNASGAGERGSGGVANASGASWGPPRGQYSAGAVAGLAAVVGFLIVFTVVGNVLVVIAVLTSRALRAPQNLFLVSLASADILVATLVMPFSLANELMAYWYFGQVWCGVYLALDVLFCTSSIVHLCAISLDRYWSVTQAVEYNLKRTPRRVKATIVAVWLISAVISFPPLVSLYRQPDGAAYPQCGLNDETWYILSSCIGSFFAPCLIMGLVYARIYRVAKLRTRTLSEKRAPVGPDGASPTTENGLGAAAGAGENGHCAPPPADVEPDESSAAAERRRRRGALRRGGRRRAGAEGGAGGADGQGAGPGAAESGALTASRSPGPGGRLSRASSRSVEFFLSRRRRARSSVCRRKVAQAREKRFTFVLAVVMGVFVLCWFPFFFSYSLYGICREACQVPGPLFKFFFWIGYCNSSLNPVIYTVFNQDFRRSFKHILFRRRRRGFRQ

| Kb | Structure (SMILES) |
| --- | --- |
| 0.05 nM | O=C1CCCN1c1nsnc1N1CCN(C[C@H]2COc3ccccc3O2)CC1 |
| 0.01 nM | CC1(C)CCN(c2nsnc2N2CCN(C[C@H]3COc4ccccc4O3)CC2)C1=O |
| 0.09 nM | CN(C)C(=O)c1nsnc1N1CCN(C[C@H]2COc3ccccc3O2)CC1 |
| 0.01 nM | COc1scnc1N1CCN(C[C@H]2COc3ccccc3O2)CC1 |
| 0.06 nM | Cc1c(N2CCNC2=O)c(N2CCN(C[C@H]3COc4ccccc4O3)CC2)nn1C |
| 0.04 nM | O=C1CCCN1c1ncsc1N1CCN(C[C@H]2COc3ccccc3O2)CC1 |

test system: not listed separately; experiment: Unbound fraction in rat plasma at 1 mg/kg, po; format: ADME, organism-based; settings: not given

| fraction unbound | Structure (SMILES) |
| --- | --- |
| 0.185 | O=C1CCCN1c1nsnc1N1CCN(C[C@H]2COc3ccccc3O2)CC1 |

test system: not listed separately; experiment: AUC (0 to 6 hrs) in rat plasma at 1 mg/kg, po; format: ADME, organism-based; set-up: dose 1 mg/kg, route po; settings: not given

| AUC(0-t) | Structure (SMILES) |
| --- | --- |
| 189 ng·h/mL | O=C1CCCN1c1nsnc1N1CCN(C[C@H]2COc3ccccc3O2)CC1 |
